“And” between values parts separate entries of the source, which are not always exact repeats. Equal entries are not always repeated. Where two headings read alike, the source gives them in different places. A value given as a limit tells only on which side of the number the result lay.

One may read the IC50 as the concentration that gives 50% inhibition.

In assay [1] the target is T1, AHR (Mus musculus, UniProt P30561).
T1 sequence (P30561 1-848 P471L/N533S/M589L): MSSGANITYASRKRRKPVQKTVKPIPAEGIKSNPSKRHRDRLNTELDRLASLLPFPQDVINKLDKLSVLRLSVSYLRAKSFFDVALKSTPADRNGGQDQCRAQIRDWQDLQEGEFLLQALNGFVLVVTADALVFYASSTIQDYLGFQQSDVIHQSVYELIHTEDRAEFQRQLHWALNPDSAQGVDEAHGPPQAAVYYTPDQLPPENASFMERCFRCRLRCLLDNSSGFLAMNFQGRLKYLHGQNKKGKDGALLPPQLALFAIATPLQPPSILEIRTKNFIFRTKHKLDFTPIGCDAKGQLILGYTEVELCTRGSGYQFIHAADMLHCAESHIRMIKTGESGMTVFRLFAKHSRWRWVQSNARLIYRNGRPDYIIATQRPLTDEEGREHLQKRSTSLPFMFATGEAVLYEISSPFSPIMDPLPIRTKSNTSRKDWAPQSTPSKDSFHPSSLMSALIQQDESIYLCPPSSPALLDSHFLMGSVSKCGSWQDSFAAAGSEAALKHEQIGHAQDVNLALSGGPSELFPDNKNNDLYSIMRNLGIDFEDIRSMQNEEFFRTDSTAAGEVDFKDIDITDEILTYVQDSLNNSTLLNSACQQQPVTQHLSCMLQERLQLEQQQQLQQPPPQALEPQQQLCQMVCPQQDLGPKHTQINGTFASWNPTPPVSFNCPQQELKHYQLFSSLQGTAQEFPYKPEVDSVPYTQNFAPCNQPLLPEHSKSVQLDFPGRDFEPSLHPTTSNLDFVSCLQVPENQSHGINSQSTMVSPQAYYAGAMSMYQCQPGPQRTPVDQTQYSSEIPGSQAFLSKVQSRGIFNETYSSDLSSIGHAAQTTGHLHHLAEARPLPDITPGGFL
Description: In vitro assay 3: antagonism in mouse cell line (AHR transactivation, firefly luciferase reporter, kynurenic acid prestimulated). The assay is classed as cell-based. In outline:
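Cells were first stimulated with kynurenic acid, then exposed to test compound, after which firefly luciferase from a DRE-containing AHR reporter was read out. Signal was scaled between positive and negative controls. Cells not given kynurenic acid provided the inhibition reference.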

In assay [2] the target is T2, AHR (Homo sapiens, UniProt P35869).
T2 construct: U87 MG glioblastoma cells (ATCC #HTB-14) endogenously expressing AHR; endogenous in cells; host or cells: U87 MG glioblastoma cells (ATCC #HTB-14)
T2 sequence (P35869 11-848): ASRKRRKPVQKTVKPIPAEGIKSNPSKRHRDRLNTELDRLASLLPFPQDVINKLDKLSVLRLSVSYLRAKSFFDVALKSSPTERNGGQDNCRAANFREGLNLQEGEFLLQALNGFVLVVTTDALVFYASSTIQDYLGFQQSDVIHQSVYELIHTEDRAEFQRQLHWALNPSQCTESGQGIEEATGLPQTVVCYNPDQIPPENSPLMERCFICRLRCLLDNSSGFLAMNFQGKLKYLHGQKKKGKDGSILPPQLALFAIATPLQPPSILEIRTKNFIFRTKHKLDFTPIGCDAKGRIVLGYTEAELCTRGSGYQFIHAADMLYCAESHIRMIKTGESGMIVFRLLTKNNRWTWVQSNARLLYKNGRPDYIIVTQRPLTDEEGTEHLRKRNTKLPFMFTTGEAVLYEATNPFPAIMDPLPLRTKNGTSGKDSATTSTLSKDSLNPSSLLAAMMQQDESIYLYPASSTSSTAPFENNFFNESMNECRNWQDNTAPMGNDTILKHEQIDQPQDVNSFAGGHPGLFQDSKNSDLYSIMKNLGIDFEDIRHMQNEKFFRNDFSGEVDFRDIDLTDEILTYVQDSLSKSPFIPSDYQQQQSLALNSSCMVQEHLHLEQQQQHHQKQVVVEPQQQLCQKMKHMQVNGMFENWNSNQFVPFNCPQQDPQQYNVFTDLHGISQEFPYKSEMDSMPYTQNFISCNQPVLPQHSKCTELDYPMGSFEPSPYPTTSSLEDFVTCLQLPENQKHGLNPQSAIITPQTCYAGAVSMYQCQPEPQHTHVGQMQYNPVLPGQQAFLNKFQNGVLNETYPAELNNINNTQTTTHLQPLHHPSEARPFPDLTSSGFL
Description: In vitro assay 1: antagonism in human cell line (AHR transactivation, firefly luciferase reporter, kynurenic acid prestimulated). The assay is classed as cell-based. The conditions noted are these: AHR Antagonism Human IC50 [M]. In outline:
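U87 MG + DRE-firefly/constitutive-Renilla stable reporters; kynurenic acid prestim; dual-luc read; Renilla = tox; normalized vs pos/neg controls (pos: 150 μM KYNA + 5 μM staurosporine).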
On the technique in general: Reporter assays use an easily measured gene product as a stand-in for the process of interest.

[3] abbreviates: mouse Hepa 1c1c7 cells, 200 μM kynurenic acid, 20 hours, read-out: AHR Antagonism Mouse IC50.
The mark [4] stands for this setting: Hepa 1c1c7 cells, 200 μM kynurenic acid, 20 hours, firefly luciferase reporter, read-out: AHR Antagonism Mouse IC50.

Regarding `O=C1NCCCC[C@H]1Nc1nc2c(Br)cc(Br)cc2c2nc(-c3cccc(F)c3)nn12` [Example 592, (3R)-3-{[7,9-dibromo-2-(3-fluorophenyl)[1,2,4]triazolo[1,5-c]quinazolin-5-yl]amino}azepan-2-one], the figures for the IC50 on AHR [1] (setting [3]) and against AHR [2] were over 20000 nM and 5.21e-07 M, respectively.
The matching figures for `O=C1NCCCC[C@H]1Nc1nc2ccccc2c2nc(-c3ccc(F)cc3OC(F)(F)F)nn12` [Example 516, (3R)-3-({2-[4-fluoro-2-(trifluoromethoxy)phenyl][1,2,4]triazolo[1,5-c]quinazolin-5-yl}amino)azepan-2-one]: 2.18 nM and 4.64e-09 M.
For the compound `COc1ccc(-c2nc3c4cccc(Br)c4nc(N[C@H](C)C(=O)N4CCO[C@H](C)C4)n3n2)cc1` [Example 907, (2R)-2-{[7-bromo-2-(4-methoxyphenyl)[1,2,4]triazolo[1,5-c]quinazolin-5-yl]amino}-1-[(2R)-2-methylmorpholin-4-yl]propan-1-one], the IC50 on AHR [1] (setting [4]) worked out at 1.39 nM; against AHR [2] (firefly luciferase reporter), 9.93e-10 M.
`O=C1NCCCC[C@H]1Nc1nc2ccccc2c2nc(-c3ccccc3F)nn12` [Example 55, (3R)-3-{[2-(2-fluorophenyl)[1,2,4]triazolo[1,5-c]quinazolin-5-yl]amino}azepan-2-one]: the IC50 on AHR [1] (setting [3]) came to 15.7 nM; against AHR [2] it was 2.01e-09 M.
Take `Cn1cc(-c2nc3c4ccccc4nc(NC4CCCNC4=O)n3n2)cn1` (single isomer, unassigned) [Example 21, 3-{[2-(1-methyl-1H-pyrazol-4-yl)[1,2,4]triazolo[1,5-c]quinazolin-5-yl]amino}piperidin-2-one]: the IC50 was > 20000 nM and 19700 nM at AHR [1] (setting [3]); 1.29e-05 M against AHR [2].
`Cc1noc(-c2nc3c4ccccc4nc(N[C@@H]4CCCCNC4=O)n3n2)n1` [Example 131, (3R)-3-{[2-(3-methyl-1,2,4-oxadiazol-5-yl)[1,2,4]triazolo[1,5-c]quinazolin-5-yl]amino}azepan-2-one]: the IC50 is 93.8 nM on AHR [1] (setting [3]) and 1.79e-07 M on AHR [2].
The matching figures for `Cn1cc(-c2nc3c4cccc(F)c4nc(N[C@@H]4CCCCNC4=O)n3n2)cn1` [Example 551, (3R)-3-{[7-fluoro-2-(1-methyl-1H-pyrazol-4-yl)[1,2,4]triazolo[1,5-c]quinazolin-5-yl]amino}azepan-2-one]: 13.8 nM and 1.17e-08 M.
Regarding `CC(C)n1cc(-c2nc3c4cccc(Br)c4nc(N[C@@H]4CCCCNC4=O)n3n2)cn1` [Example 822, (3R)-3-({7-bromo-2-[1-(propan-2-yl)-1H-pyrazol-4-yl][1,2,4]triazolo[1,5-c]quinazolin-5-yl}amino)azepan-2-one], the half-inhibitory concentration (IC50) on AHR [1] (setting [4]) was determined as 1.68 nM; against AHR [2] (firefly luciferase reporter), 7.23e-10 M.
Consider `C[C@@H](Nc1nc2c(Br)cccc2c2nc(-c3cnn(C)c3)nn12)C(=O)NCCN1CCN(C)CC1` [Example 783, N^2-[7-bromo-2-(1-methyl-1H-pyrazol-4-yl)[1,2,4]triazolo[1,5-c]quinazolin-5-yl]-N-[2-(4-methylpiperazin-1-yl)ethyl]-D-alaninamide], for which the IC50 was 291 nM at AHR [1] (setting [4]) and 1.71e-07 M against AHR [2] (firefly luciferase reporter).
The like results for `CCn1cc(-c2nc3c4cccc(S(C)(=O)=O)c4nc(N[C@@H]4CNCCNC4=O)n3n2)c(C)n1` [Example 945, (6R)-6-{[2-(1-ethyl-3-methyl-1H-pyrazol-4-yl)-7-(methanesulfonyl)[1,2,4]triazolo[1,5-c]quinazolin-5-yl]amino}-1,4-diazepan-5-one] were, in that order, 2080 nM and 4.79e-07 M.
For `COc1ccc(-c2nc3c4cccc(Br)c4nc(N[C@H](C)C(=O)NCCN(C)C(=O)OC(C)(C)C)n3n2)cc1` [Example 887, tert-butyl [2-({N-[7-bromo-2-(4-methoxyphenyl)[1,2,4]triazolo[1,5-c]quinazolin-5-yl]-D-alanyl}amino)ethyl]methylcarbamate], the IC50 is 10.1 nM at AHR [1] (read-out: AHR Antagonism Mouse IC50, Hepa 1c1c7 cells, 200 μM kynurenic acid, 20 hours, firefly luciferase reporter) and 1.37e-09 M against AHR [2] (firefly luciferase reporter).

Source of the values: patent US20230113037A1 (Bayer Aktiengesellschaft, priority 2019, published 2023).
